Assays:
[1] = system: Mycobacterium tuberculosis; experiment: Inhibition of Mycobacterium tuberculosis Zmp1 at 8 to 40 uM by MALDI-TOF-MS analysis; conditions: dose 8-40 µM
[2] = system: Mycobacterium tuberculosis; experiment: Antimycobacterial activity against Mycobacterium tuberculosis H37Ra ATCC 25177 assessed as inhibition of bacterial growth at 128 uM measured after 7 days by luminescence based analysis relative to control; format: functional; conditions: H37Ra ATCC 25177, 168 h, time 7 day
RAW264.7 = experiment: Cytotoxicity against mouse RAW264.7 cells assessed as inhibition of cell growth measured after 72 hrs by resazurin staining based […] analysis; format: functional; conditions: RAW264.7, 72 h
MRC5 = experiment: Cytotoxicity against human MRC5 cells assessed as inhibition of cell growth measured after 72 hrs by resazurin staining based […] analysis; format: functional; conditions: MRC5, 72 h
[3] = system: Mycobacterium tuberculosis; experiment: Antimycobacterial activity against Mycobacterium tuberculosis H37Ra infected in mouse RAW264.7 cells assessed as reduction in intracellular bacterial survival at 128 uM incubated for 3 days by luminescence based analysis relative to control; format: functional; conditions: time 3 day

Compound | inhibition [1] [%] | inhibition at 128 µM [2] [%] | IC50 (RAW264.7; read-out: IC50) [µM] | IC50 (MRC5) [µM] | IC50 (RAW264.7) [µM] | Activity [3] [%]
CC(C)C[C@H](NC(=O)CNC(=O)c1ccn(CC(=O)NOCc2ccccc2)c1)C(=O)O | 26 | 9.2 | > 128 | > 128 | – | –
C=CCONC(=O)Cn1cc(C(=O)NCC(=O)N[C@H](C(=O)O)C(C)C)c2ccccc21 | 56 | 10.3 | > 128 | > 128 | – | –
CC/C(=C(\c1ccccc1)c1ccc(OCCN(C)C)cc1)c1ccccc1 [TAMOXIFEN] | – | – | – | 17.2 | 18.5 | –
CC(C)C[C@H](NC(=O)[C@H](C)NC(=O)c1cn(CC(=O)NOCc2ccccc2)c2ccccc12)C(=O)O | 56 | 13.6 | > 128 | > 128 | – | –
COC(=O)[C@@H](NC(=O)c1ccc(/C=C2\SC(=O)N(CC(=O)NOCc3ccccc3)C2=O)cc1)C(C)C | 41 | 6.2 | > 128 | > 128 | – | 83.2
CC(C)C[C@H](NC(=O)[C@H](C)NC(=O)c1ccn(CC(=O)NOCc2ccccc2)c1)C(=O)O | 62 | 3.2 | > 128 | > 128 | – | –
C=CCONC(=O)CN1C(=O)S/C(=C\c2ccc(C(=O)N[C@@H](CC(C)C)C(=O)OC)cc2)C1=O | 6 | 4.4 | > 128 | > 128 | – | 67.3
CC(C)[C@H](NC(=O)CNC(=O)c1cn(CC(=O)NOCc2ccccc2)c2ccccc12)C(=O)O | 69 | 30.3 | > 128 | > 128 | – | 37.2
C=CCONC(=O)Cn1ccc(C(=O)NCC(=O)N[C@H](C(=O)O)C(C)C)c1 | 14 | – | – | – | – | –
C=CCONC(=O)Cn1ccc(C(=O)N[C@@H](C)C(=O)N[C@H](C(=O)O)C(C)C)c1 | 27 | 12.8 | > 128 | > 128 | – | –
COC(=O)[C@H](CC(C)C)NC(=O)c1ccc(/C=C2\SC(=O)N(CC(=O)NOCc3ccccc3)C2=O)cc1 | 5 | 2 | > 128 | > 128 | – | 80.3
NNC(=O)c1ccncc1 [ISONIAZID] | – | 100 | – | – | – | –
CO[C@H]1/C=C/O[C@@]2(C)Oc3c(C)c(O)c4c(O)c(c(/C=N/N5CCN(C)CC5)c(O)c4c3C2=O)NC(=O)/C(C)=C\C=C\[C@H](C)[C@H](O)[C@@H](C)[C@@H](O)[C@@H](C)[C@H](OC(C)=O)[C@@H]1C [RIFAMPIN] | – | 100 | – | – | – | –
C=CCONC(=O)CN1C(=O)S/C(=C\c2ccc(C(=O)N[C@H](C(=O)OC)C(C)C)cc2)C1=O | 38 | 8.2 | > 128 | > 128 | – | 28.4
C=CCONC(=O)Cn1cc(C(=O)NCC(=O)N[C@@H](CC(C)C)C(=O)O)c2ccccc21 | 47 | 14.6 | > 128 | > 128 | – | –
C=CCONC(=O)Cn1cc(C(=O)N[C@@H](C)C(=O)N[C@@H](CC(C)C)C(=O)O)c2ccccc21 | 86 | 12.4 | > 128 | > 128 | – | –
C=CCONC(=O)CN1C(=O)S/C(=C\c2cccc(C(=O)N[C@H](C(=O)OC)C(C)C)c2)C1=O | – | 3.4 | > 128 | > 128 | – | 14.1
C=CCONC(=O)Cn1cc(C(=O)N[C@@H](C)C(=O)N[C@H](C(=O)O)C(C)C)c2ccccc21 | 50 | 13.6 | > 128 | > 128 | – | –
COc1nc2ccc(Br)cc2cc1[C@@H](c1ccccc1)[C@@](O)(CCN(C)C)c1cccc2ccccc12 [BEDAQUILINE] | – | 100 | – | – | – | –
CC(C)[C@H](NC(=O)[C@H](C)NC(=O)c1cn(CC(=O)NOCc2ccccc2)c2ccccc12)C(=O)O | 59 | 23.6 | > 128 | > 128 | – | –
CC(C)[C@H](NC(=O)CNC(=O)c1ccn(CC(=O)NOCc2ccccc2)c1)C(=O)O | 70 | 5.9 | > 128 | > 128 | – | –
C=CCONC(=O)Cn1ccc(C(=O)NCC(=O)N[C@@H](CC(C)C)C(=O)O)c1 | 13 | 6.9 | > 128 | > 128 | – | –
C=CCONC(=O)Cn1ccc(C(=O)N[C@@H](C)C(=O)N[C@@H](CC(C)C)C(=O)O)c1 | 88 | 13.8 | > 128 | > 128 | – | –
COC(=O)[C@H](CC(C)C)NC(=O)c1cccc(/C=C2\SC(=O)N(CC(=O)NOCc3ccccc3)C2=O)c1 | 19 | 4.2 | > 128 | > 128 | – | 51.9
COC(=O)[C@@H](NC(=O)c1cccc(/C=C2\SC(=O)N(CC(=O)NOCc3ccccc3)C2=O)c1)C(C)C | – | 6.3 | > 128 | > 128 | – | 35.1
CC(C)C[C@H](NC(=O)CNC(=O)c1cn(CC(=O)NOCc2ccccc2)c2ccccc12)C(=O)O | 57 | 11.1 | > 128 | > 128 | – | –
C=CCONC(=O)CN1C(=O)S/C(=C\c2cccc(C(=O)N[C@@H](CC(C)C)C(=O)OC)c2)C1=O | 47 | 3.2 | > 128 | > 128 | – | 46.3
CC(C)[C@H](NC(=O)[C@H](C)NC(=O)c1ccn(CC(=O)NOCc2ccccc2)c1)C(=O)O | 16 | 6.9 | > 128 | > 128 | – | –
